Results on four compounds are retold here after patent publication US20230321284A1, “COMPOUND, CONTRAST AGENT, AND METHOD FOR PRODUCING COMPOUND” (ST. MARIANNA UNIVERSITY SCHOOL OF MEDICINE, priority 2020, published 2023).

Data set [1] deals with T1, asialoglycoprotein receptor (Homo sapiens, UniProt P07306+P07307).
T1 construct: reacted with HepG2 cells washed with ice-cold MEM (GIBCO) in 6 wells; endogenous in cells; host or cells: HepG2
T1 sequence (P07306 1-291): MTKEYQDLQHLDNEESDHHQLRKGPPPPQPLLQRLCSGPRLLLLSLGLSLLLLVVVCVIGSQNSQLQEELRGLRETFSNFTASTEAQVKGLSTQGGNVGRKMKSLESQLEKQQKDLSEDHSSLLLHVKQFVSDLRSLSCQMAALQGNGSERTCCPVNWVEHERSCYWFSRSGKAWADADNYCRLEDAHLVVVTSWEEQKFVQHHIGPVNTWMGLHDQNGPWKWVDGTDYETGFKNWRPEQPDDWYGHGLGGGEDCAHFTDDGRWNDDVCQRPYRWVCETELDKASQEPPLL
T1 sequence (P07307 1-311): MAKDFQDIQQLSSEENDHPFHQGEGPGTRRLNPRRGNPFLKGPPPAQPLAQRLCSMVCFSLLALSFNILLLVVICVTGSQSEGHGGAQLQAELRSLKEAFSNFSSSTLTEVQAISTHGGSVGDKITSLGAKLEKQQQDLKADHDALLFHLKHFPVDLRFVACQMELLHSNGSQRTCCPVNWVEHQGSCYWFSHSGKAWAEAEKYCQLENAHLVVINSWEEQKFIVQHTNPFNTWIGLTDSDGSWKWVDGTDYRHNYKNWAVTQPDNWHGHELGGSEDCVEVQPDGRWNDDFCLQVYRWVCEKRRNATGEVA
Briefly: Uptake inhibition test of I-ASOR in liver cancer cell line HepG2 (Test Example 1). Type of data set: cell-based. To be noted: compound 100 μg/mL, I-ASOR 6 μg/mL, 4° C. for 30 minutes, FIG. 1. How it is done:
RYO-1, MEG-1, and MEG-2 prepared in Examples were subjected to an uptake inhibition test, in which the uptake is performed by an asialoglycoprotein receptor specifically expressed in hepatocytes, using a liver cancer cell line HepG2 in accordance with J Gastroenterol 1998, 33, 855-859. Specifically, the test is based on the following method.
First, orosomucoid (Sigma-Aldrich Co., LLC) was converted to an asialo compound through reaction with immobilized neuraminidase (Sigma-Aldrich Co., LLC) at 37° C. for 12 hours. This asialo-orosomucoid (ASOR) was labeled with radioactive iodine (125I) by use of the chloramine-T method to prepare I-ASOR.
The obtained I-ASOR was prepared as a 6 μg/mL solution in PBS and reacted with HepG2 cells washed with ice-cold MEM (GIBCO) in 6 wells at 4° C. for 30 minutes. The cells were thoroughly washed and then lysed using 0.1 N NaOH, and radiation dose “A” taken up into the cells was measured (control sample). […]
Next, the background of nonspecific binding of I-ASOR was measured as follows in order to eliminate the influence of the nonspecific binding of I-ASOR to the cells. […] Then, the obtained cells were washed and lysed, and radiation dose “B” was measured. […]
Next, “A-B” was calculated as to each sample to calculate I-ASOR specifically taken up into HepG2. […]

In a further data set the test system is Panc-1 cells. Briefly: Uptake inhibition test of I-ASOR in pancreatic cancer cell line Panc-1 having no asialoglycoprotein receptor (Test Example 1). The settings on record: compound 100 μg/mL, I-ASOR 6 μg/mL, 4° C. for 30 minutes, FIG. 2. The format is cell-based. On the procedure: A similar experiment was conducted using a pancreatic cancer cell line Panc-1 having no asialoglycoprotein receptor. Specifically, the test is based on the following method.
I-ASOR labeled with radioactive iodine (125I) in the same manner as above was prepared as a 6 μg/mL solution in PBS and reacted with Panc-1 cells washed with ice-cold MEM (GIBCO) in 6 wells at 4° C. for 30 minutes. The cells were thoroughly washed and then lysed using 0.1 N NaOH, and radiation dose “A” taken up into the cells was measured (control sample). Similar measurement was performed by the addition of I-ASOR as well as MEG-1, MEG-2, or RYO-1 at 100 μg/mL to measure radiation dose “A” when each compound was added.
Next, the background of nonspecific binding of I-ASOR was measured as follows in order to eliminate the influence of the nonspecific binding of I-ASOR to the cells. Specifically, I-ASOR (6 μg/mL) and a 100-fold concentration (600 μg/mL) of nonlabelled ASOR were mixed and reacted with Panc-1 in the same manner as above. Then, the obtained cells were washed and lysed, and radiation dose “B” was measured. The radiation dose “B” as the background was commonly used in all of the control sample and the sample supplemented with each compound.
Next, “A-B” was calculated as to each sample to calculate I-ASOR specifically taken up into Panc-1. […]

Data set [2] is described as follows: Contrast experiment: CT imaging after tail vein injection (Test Example 3). Type of data set: in vivo. The settings on record: 9-week-old male ICR mouse, MEG-1 dose 52 mg/animal, images before, during, 15 minutes and 1 hour after administration. How it is done: A 9-week-old male ICR mouse purchased from CLEA Japan, Inc. was anesthetized by isoflurane inhalation. While the respiratory condition was monitored with DELPet μCT100 application software (DELBio, Inc.), MEG-1 was gradually administered by injection from the tail vein. The dose of MEG-1 was set to 52 mg/animal.
CT images were taken before administration, during administration, 15 minutes after administration and 1 hour after administration. Image data from the chest to the lower abdomen was reconstituted at a pixel size of […] and converted to dicom data. Further, the images were analyzed with VivoQuant software (inviCRO. LLC).
A similar test was conducted using MEG-2, MEG-4, or RYO-2 instead of MEG-1.

Data set [3] addresses T1, asialoglycoprotein receptor. Briefly: Comparison of uptake activity by asialoglycoprotein receptor among compounds in HepG2 (Test Example 2). The format is cell-based. The settings on record: compound 1.0 mM/mL, I-ASOR 0.4 μg/mL, 37° C. for 30 minutes, FIG. 3. How it is done: Uptake activity by an asialoglycoprotein receptor was compared among MEG-2, MEG-4, RYO-1, and RYO-2 by use of the same method as in Test Example 1.
A PBS solution containing 0.4 μg/mL I-ASOR obtained in the same manner as in Test Example 1 and 1.0 mM/mL MEG-2, MEG-4, RYO-1, or RYO-2 was prepared and reacted with HepG2 washed with ice-cold MEM (GIBCO) in 6 wells at 37° C. for 30 minutes. The cells were thoroughly washed and then lysed using 0.1 N NaOH, and radiation dose “A” taken up into HepG2 was measured.
An experiment was conducted as a positive control in which a PBS solution containing 0.4 μg/mL I-ASOR and 1000 μg/mL nonlabelled ASOR was prepared and reacted with HepG2 washed with ice-cold MEM (GIBCO) in 6 wells at 4° C. for 30 minutes.
Next, the background of nonspecific binding of I-ASOR was measured as follows in order to eliminate the influence of the nonspecific binding of I-ASOR to the cells. Specifically, I-ASOR (0.4 μg/mL) and a 100-fold concentration (40 μg/mL) of nonlabelled ASOR were mixed and reacted with HepG2 in the same manner as above. Then, the obtained cells were washed and lysed, and radiation dose “B” was measured. The radiation dose “B” as the background was commonly used in all of the control sample, the positive control sample, and the sample supplemented with each compound.
Next, “A-B” was calculated as to each sample to calculate I-ASOR specifically taken up into HepG2. The experiment was conducted in triplicate to calculate standard deviation.

The structures appear in SMILES notation.

Consider `CC(=O)Nc1c(I)c(NC(C)=O)c(I)c(C(=O)NCCO[C@@H]2OC(CO)[C@H](O)C(O)[C@@H]2O)c1I` (stereo partly drawn) [MEG-1], for which the “inhibition of the uptake of the ligand (I-ASOR) in HepG2” value (“inhibition of the uptake … in HepG2” for short) in data set [1] is reported as “competitively inhibit the uptake of the ligand”. The “inhibition of the uptake of the ligand (I-ASOR) in Panc-1” value in the data set with Panc-1 cells was “none of RYO-1, MEG-1, and MEG-2 inhibited the uptake of the ligand”. For the same compound, the “CT images: appearance of high-absorption liquid (excretion sites)” value (“CT images: appearance” below) in data set [2] is “a liquid that exhibited high absorption, which was not observed before administration, was confirmed to appear over time in the intestine and in the urinary bladder”.

`O=C(NCCOCCO[C@@H]1OC(CO)[C@H](O)[C@H](O)C1O)c1c(I)c(C(=O)NCCOCCO[C@@H]2OC(CO)[C@H](O)[C@H](O)C2O)c(I)c(C(=O)NCCOCCO[C@@H]2OC(CO)[C@H](O)[C@H](O)C2O)c1I` (stereo partly drawn) [MEG-4]: in data set [3], the “inhibition of the uptake … in HepG2” value is on record as “competitively inhibited the uptake of the ligand in HepG2” and the “inhibitory ability on ligand uptake compared between compounds” value is given as “higher in MEG-4 than in MEG-2”. Besides, the “CT images: appearance” value in data set [2] was “a liquid that exhibited high absorption, which was not observed before administration, was confirmed to appear over time in the intestine and in the urinary bladder”.

`CC(=O)Nc1c(I)c(NC(C)=O)c(I)c(C(=O)NCCNC(=O)[C@H](O)[C@@H](O)C(O[C@@H]2OC(CO)[C@H](O)[C@H](O)C2O)[C@@H](O)CO)c1I` (stereo partly drawn) [RYO-1]: the results for the “inhibition of the uptake … in HepG2” value in data set [1] and in data set [3] were “competitively inhibit the uptake of the ligand” and “competitively inhibited the uptake of the ligand in HepG2”, respectively. In the data set with Panc-1 cells, the “inhibition of the uptake of the ligand (I-ASOR) in Panc-1” value is “none of RYO-1, MEG-1, and MEG-2 inhibited the uptake of the ligand”.

For `O=C(NCCNC(=O)[C@H](O)[C@@H](O)[C@H](O[C@@H]1O[C@H](CO)[C@H](O)[C@H](O)[C@H]1O)[C@H](O)CO)c1c(I)c(C(=O)NCCNC(=O)[C@H](O)[C@@H](O)[C@H](O[C@@H]2O[C@H](CO)[C@H](O)[C@H](O)[C@H]2O)[C@H](O)CO)c(I)c(C(=O)NCCNC(=O)[C@H](O)[C@@H](O)C(O[C@@H]2O[C@H](CO)[C@H](O)[C@H](O)[C@H]2O)[C@H](O)CO)c1I` (stereo partly drawn) [RYO-2], in data set [3], the “inhibition of the uptake … in HepG2” value is on record as “competitively inhibited the uptake of the ligand in HepG2” and the “inhibitory ability on ligand uptake compared between compounds” value is listed as “higher in RYO-2 than in RYO-1”. Moreover, the “CT images: appearance” value in data set [2] is “a liquid that exhibited high absorption, which was not observed before administration, was confirmed to appear over time in the intestine and in the urinary bladder”.
